How the values were obtained:
Type in all cases: physicochemical
[1] = Through life dose consistency of sodium cromoglycate pMDI suspensions (USP <601>, apparatus A)
Procedure: (§1) In the following examples, dose consistency was determined by in vitro measurement of single actuation dose content at start, middle and end of pMDI unit life in line with U.S. Pharmacopeia (USP)<601>, using a flow rate of 28.3 L/min and apparatus A. Aerodynamic particle size distribution of the pMDI suspension aerosols was measured at start of unit life in line with U.S. Pharmacopeia (USP)<601> using a Next Generation impactor without pre-separator (apparatus 6) and a flow rate of 30 L/min.
(§2) A first set of suspensions included no ethanol. A second set of suspensions included 2% ethanol by weight.
In total, ten suspension pMDI formulations were prepared in triplicate with sufficient fill weight to provide 60 actuations. Each suspension was filled into Kindeva FEP coated canisters, crimped with a Kindeva 50-μL valve. Each pMDI unit was sonicated for at least 10 minutes to disperse the suspended drug and tested with a Kindeva actuator having an exit orifice diameter (EOD) of 0.4 mm.

[2] = Aerodynamic particle size measurement of sodium cromoglycate pMDI suspensions (Next Generation impactor)
Text: (§3) In general, aerosols with mass median aerodynamic diameters (MMAD) of at least 1 μm but less than 5 μm in size are suitable for effective deep lung deposition for therapeutic effect. Herein, fine particle fraction (FPF) is defined as the percentage of the ex-actuator delivered API having a MMAD of less than 5 μm when tested in vitro. Herein, “ex-actuator” delivered dose is used to describe the amount of API delivered past the actuator of a pMDI. Therefore, an aerosol with a high FPF is typically suitable for deep lung deposition.
as §1, §2
In total, ten suspension pMDI formulations were prepared in triplicate with sufficient fill weight to provide 60 actuations. Each suspension was filled into Kindeva FEP coated canisters, crimped with a Kindeva 50-μL valve. Each pMDI unit was sonicated for at least 10 minutes to disperse the suspended drug and tested with a Kindeva actuator having an exit orifice diameter (EOD) of 0.4 mm
(§4) The mass median aerodynamic diameter (MMAD) and fine particle fraction (FPF) of each pMDI unit were measured by Next Generation cascade impaction (N=3) for each pMDI suspension.

[3] = Aerodynamic particle size measurement of salbutamol sulfate pMDI suspensions (Next Generation impactor)
Text: as §3, §1
In total, six suspension pMDI formulations were prepared in triplicate with sufficient fill weight to provide 60 actuations. Each suspension was filled into Kindeva FEP coated canisters, crimped with a Kindeva 50-μL valve. Each pMDI unit was sonicated for at least 10 minutes to disperse the suspended drug and tested with a Kindeva actuator having an exit orifice diameter (EOD) of 0.4 mm.
as §4

[4] = nominal ex-valve 0.5 mg/act, HFA-152a
[5] = nominal ex-valve 0.5 mg/act, HFA-152a/2% EtOH (w/w)
[6] = nominal ex-valve 0.5 mg/act, HFO-1234ze(E)
[7] = nominal ex-valve 0.5 mg/act, HFO-1234ze(E)/2% EtOH (w/w)
[8] = nominal ex-valve 1.0 mg/act, HFA-152a
[9] = nominal ex-valve 1.0 mg/act, HFA-152a/2% EtOH (w/w)
[10] = nominal ex-valve 1.0 mg/act, HFO-1234ze(E)
[11] = nominal ex-valve 1.0 mg/act, HFO-1234ze(E)/2% EtOH (w/w)
[12] = nominal ex-valve 2.0 mg/act, HFA-152a
[13] = nominal ex-valve 2.0 mg/act, HFO-1234ze(E)

In the case of `O=C(O)c1cc(=O)c2c(OCC(O)COc3cccc4oc(C(=O)O)cc(=O)c34)cccc2o1` [sodium cromoglycate], the “effect of addition of ethanol on through unit life ex-actuator delivered dose consistency” value ([1]; 2% ethanol by weight, HFA-152a or HFO-1234ze(E)) was “did not always substantially improve”, the “through unit life ex-actuator delivered dose consistency” value ([1]; HFA-152a or HFO-1234ze(E) with and without 2% ethanol by weight) was “relatively consistent” and the “MoL mean delivered dose” value [1, 4] was 363.8 μg/act. The “SoL mean delivered dose” value [1, 4] was 611.8 μg/act, the “TL mean delivered dose” value [1, 4] was 427.8 μg/act and the “EoL mean delivered dose” value [1, 5] was 313.6 μg/act. The “MoL mean delivered dose” value [1, 5] was 331.6 μg/act, the “SoL mean delivered dose” value [1, 5] was 675.8 μg/act and the “TL mean delivered dose” value [1, 5] was 440.3 μg/act. The “EoL mean delivered dose” value [1, 6] was 158.7 μg/act, the “MoL mean delivered dose” value [1, 6] was 354.1 μg/act and the “SoL mean delivered dose” value [1, 6] was 419.4 μg/act. For the same compound, the “TL mean delivered dose” value [1, 6] was 310.7 μg/act, the “EoL mean delivered dose” value [1, 7] was 315.4 μg/act and the “MoL mean delivered dose” value [1, 7] was 332.8 μg/act. For the same compound, the “SoL mean delivered dose” value [1, 7] was 940.2 μg/act, the “TL mean delivered dose” value [1, 7] was 529.5 μg/act and the “EoL mean delivered dose” value [1, 8] was 618.4 μg/act. The “MoL mean delivered dose” value [1, 8] was 931.3 μg/act, the “SoL mean delivered dose” value [1, 8] was 950.3 μg/act and the “TL mean delivered dose” value [1, 8] was 833.3 μg/act. For the same compound, the “EoL mean delivered dose” value [1, 9] was 847.0 μg/act, the “MoL mean delivered dose” value [1, 9] was 906.3 μg/act and the “SoL mean delivered dose” value [1, 9] was 1027.9 μg/act. For the same compound, the “TL mean delivered dose” value [1, 9] was 927.0 μg/act, the “EoL mean delivered dose” value [1, 10] was 695.5 μg/act and the “MoL mean delivered dose” value [1, 10] was 784.8 μg/act. The “SoL mean delivered dose” value [1, 10] was 967.3 μg/act, the “TL mean delivered dose” value [1, 10] was 815.9 μg/act and the “EoL mean delivered dose” value [1, 11] was 735.1 μg/act. For the same compound, the “MoL mean delivered dose” value [1, 11] was 917.0 μg/act, the “SoL mean delivered dose” value [1, 11] was 876.4 μg/act and the “TL mean delivered dose” value [1, 11] was 842.9 μg/act. The “EoL mean delivered dose” value [1, 12] was 1694.4 μg/act, the “MoL mean delivered dose” value [1, 12] was 1590.1 μg/act and the “SoL mean delivered dose” value [1, 12] was 1782.4 μg/act. The “TL mean delivered dose” value [1, 12] was 1689.0 μg/act, the “EoL mean delivered dose” value [1, 13] was 119.8 μg/act and the “MoL mean delivered dose” value [1, 13] was 879.1 μg/act. For the same compound, the “SoL mean delivered dose” value [1, 13] was 2009.3 μg/act, the “TL mean delivered dose” value [1, 13] was 1255.0 μg/act and the “MMAD values of aerosols, suitability” value ([2]; HFA-152a or HFO-1234ze(E), with and without ethanol, in-vitro) was “in an appropriate respirable range”. For the same compound, the “FPF and MMAD without ethanol compared with corresponding suspensions with 2% ethanol by weight” value ([2]; HFA-152a or HFO-1234ze(E), all nominal doses) was “consistently produced greater FPFs and smaller MMADs”, the “Mean FPF” value [2, 4] was 33.0% and the “Mean MMAD” value [2, 4] was 3.59 μm. The “Mean FPF” value [2, 5] was 29.5%, the “Mean MMAD” value [2, 5] was 3.92 μm and the “Mean FPF” value [2, 6] was 41.3%. The “Mean MMAD” value [2, 6] was 3.41 μm, the “Mean FPF” value [2, 7] was 34.1% and the “Mean MMAD” value [2, 7] was 3.77 μm. The “Mean FPF” value [2, 8] was 28.2%, the “Mean MMAD” value [2, 8] was 3.85 μm and the “Mean FPF” value [2, 9] was 25.2%. The “Mean MMAD” value [2, 9] was 4.38 μm, the “Mean FPF” value [2, 10] was 34.7% and the “Mean MMAD” value [2, 10] was 3.72 μm. For the same compound, the “Mean FPF” value [2, 11] was 30.9%, the “Mean MMAD” value [2, 11] was 4.13 μm and the “Mean FPF” value [2, 12] was 24.7%. For the same compound, the “Mean MMAD” value [2, 12] was 4.39 μm, the “Mean FPF” value [2, 13] was 30.7% and the “Mean MMAD” value [2, 13] was 4.23 μm. For the same compound, the “FPF and MMAD in HFO-1234ze(E) compared with corresponding suspensions in HFA-152a” value ([2]; with or without ethanol) was “consistently produced greater FPFs and generally smaller MMADs”.

In the case of salbutamol sulfate, the “MMAD values of aerosols, suitability” value ([3]; HFA-152a or HFO-1234ze(E), in-vitro) was “in an appropriate respirable range”, the “FPF and MMAD in HFO-1234ze(E) compared with corresponding suspensions in HFA-152a” value ([3]; no ethanol) was “consistently produced greater FPFs and smaller MMADs” and the “Mean FPF” value [3, 4] was 45.6%. The “Mean MMAD” value [3, 4] was 2.98 μm, the “Mean FPF” value [3, 6] was 57.0% and the “Mean MMAD” value [3, 6] was 2.98 μm. The “Mean FPF” value [3, 8] was 40.8%, the “Mean MMAD” value [3, 8] was 3.30 μm and the “Mean FPF” value [3, 10] was 52.4%. For the same compound, the “Mean MMAD” value [3, 10] was 3.12 μm, the “Mean FPF” value [3, 12] was 30.3% and the “Mean MMAD” value [3, 12] was 3.92 μm. For the same compound, the “Mean FPF” value [3, 13] was 36.4% and the “Mean MMAD” value [3, 13] was 3.67 μm.

Source: patent US20260249027A1, “METERED DOSE INHALERS AND HIGH-DOSE SUSPENSIONS” (Kindeva Drug Delivery L.P., priority 2023, published 2026)
